Test results published in PMC10049026, “In Silico Binding of 2-Aminocyclobutanones to SARS-CoV-2 Nsp13 Helicase and Demonstration of Antiviral Activity” (International Journal of Molecular Sciences, 2023).
Read-outs that look alike come from different tables or passages of the source.

What was measured:
Helicase (NSP13) = settings: cited from earlier work
[1] = read-out: Tox CC50, cited from earlier work
SARS-CoV-2 [2] = settings: cited from earlier work
[3] = tested on: wild-type (alpha strain, SARS-CoV-2, USA-WA1/2020) SARS-CoV-2; experiment: Inhibition of SARS-CoV-2 mediated cell death, wild type (dose response); format: cell-based
SARS-CoV-2 [4] = experiment: Cell survival following SARS-CoV-2 challenge; format: cell-based
SARS-CoV-2 [5] = tested on: SARS-CoV-2; parameters: method as in Ref11; settings: in vivo (Sirian hamster); ref Ref11; cited from earlier work
[6] = Severe acute respiratory syndrome coronavirus 2, wild-type (alpha strain, USA-WA1/2020), read-out: IC50 Values For inhibition of SARS-CoV-2 Mediated Cell Death, Wild Type
[7] = Severe acute respiratory syndrome coronavirus 2, Vero, read-out: IC50, dose response anti-viral testing (Figure 4), alpha strain USA-WA1/2020, legend names Vero cells
[8] = wild-type (alpha strain, USA-WA1/2020), read-out: IC50 Values For inhibition of SARS-CoV-2 Mediated Cell Death, Wild Type

Molecule: O=C1O[C@H]2[C@@H]3OC(=O)c4cc(O)c(O)c(O)c4-c4c(O)c(O)c5oc(=O)c6c(c(O)c(O)c7oc(=O)c4c5c76)-c4c(cc(O)c(O)c4O)C(=O)OC[C@H]3OC(O)[C@@H]2OC(=O)c2cc(O)c(O)c(O)c2-c2c1cc(O)c(O)c2O (mixture of isomers) [Punicalagin]
- IC50 (Helicase (NSP13); Enzyme assay, ref Ref5): 0.43 µM
- CC50 ([1]; ref Ref5): 33.9 µM
- IC50 (SARS-CoV-2 [2]; in vitro assay, ref Ref5, read-out: Antiviral activity IC50): 0.347 µM

Molecule: Cc1ccc(S(=O)(=O)N[C@@H](Cc2ccccc2)C(=O)NC2CCC2=O)cc1 (stereo partly drawn) [Compound 1, (2S)-2-((4-Methylphenyl)sulfonamido)-N-(2-oxocyclobutyl)-3-phenylpropanamide]
- IC50 [3, 6]: 15.4 µM
- Cell Survival following SARS-CoV-2 Challenge (SARS-CoV-2 [4]; 5 µM inhibitor concentration): 39.3
- Cell Survival following SARS-CoV-2 Challenge (SARS-CoV-2 [4]; 50 µM inhibitor concentration): 49.8

Molecule: O=C(N[C@H](Cc1ccccc1)C(=O)NC1CCC1=O)OCc1ccccc1 (stereo partly drawn) [Compound 2, Benzyl ((2R)-1-oxo-1-((2-oxocyclobutyl)amino)-3-phenylpropan-2-yl) carbamate]
- IC50 [3, 7]: 20.3 ± 14.4 µM
- IC50 [3, 6]: 6.89 µM
- toxicity / growth inhibition of Vero cell line (Vero cell line): some inhibitory effect on Vero cell line growth
- Cell Survival following SARS-CoV-2 Challenge (SARS-CoV-2 [4]; 5 µM inhibitor concentration): 24.2
- Cell Survival following SARS-CoV-2 Challenge (SARS-CoV-2 [4]; 50 µM inhibitor concentration): 34.7
- cell survival (SARS-CoV-2 [4]; at 5 µM): 24.2%

Molecule: CC(C)[C@H](NC(=O)OCc1ccccc1)C(=O)NC1CCC1=O (stereo partly drawn) [Compound 3, Benzyl ((2S)-3-methyl-1-oxo-1-((2-oxocyclobutyl)amino)butan-2-yl) carbamate]
- IC50 [3, 7]: 15.1 ± 8.22 µM
- IC50 [3, 6]: 13.1 µM
- Cell Survival following SARS-CoV-2 Challenge (SARS-CoV-2 [4]; 5 µM inhibitor concentration): 37.9
- Cell Survival following SARS-CoV-2 Challenge (SARS-CoV-2 [4]; 50 µM inhibitor concentration): 54.9

Molecule: Cc1ccc(S(=O)(=O)N[C@@H](Cc2c[nH]c3ccccc23)C(=O)NC2CCC2=O)cc1 (stereo partly drawn) [Compound 4, (2S)-3-(1H-Indol-3-yl)-2-((4-methylphenyl)sulfonamido)-N-(2-oxocyclobutyl)propanamide]
- IC50 [3, 7]: 13.2 ± 2.35 µM
- IC50 ([3]; Severe acute respiratory syndrome coronavirus 2, read-out: IC50 Values For inhibition of SARS-CoV-2 Mediated Cell Death, Wild Type, wild-type (alpha strain, USA-WA1/2020)): 6.7 µM
- IC50 [3, 8]: 13 µM
- toxicity / growth inhibition of Vero cell line (Vero cell line): least toxic against the Vero cell line
- Cell Survival following SARS-CoV-2 Challenge (SARS-CoV-2 [4]; 5 µM inhibitor concentration): 54.3
- Cell Survival following SARS-CoV-2 Challenge (SARS-CoV-2 [4]; 50 µM inhibitor concentration): 70.9

Molecule: Cc1ccc(S(=O)(=O)N[C@@H](Cc2ccccc2)C(=O)NCC2(O)CC2)cc1 [Compound 5, (S)-N-((1-hydroxycyclopropyl)methyl)-2-((4-methylphenyl)sulfonamido)-3-phenylpropanamide]
- Cell Survival following SARS-CoV-2 Challenge (SARS-CoV-2 [4]; 5 µM inhibitor concentration): 30.0
- Cell Survival following SARS-CoV-2 Challenge (SARS-CoV-2 [4]; 50 µM inhibitor concentration): 30.7

Molecule: Cc1ccc(S(=O)(=O)N[C@H](Cc2ccccc2)C(=O)NC2CCC2=O)cc1 (stereo partly drawn) [Compound 6, (2R)-2-((4-Methylphenyl)sulfonamido)-N-(2-oxocyclobutyl)-3-phenylpropanamide]
- Cell Survival following SARS-CoV-2 Challenge (SARS-CoV-2 [4]; 5 µM inhibitor concentration): 26.6
- Cell Survival following SARS-CoV-2 Challenge (SARS-CoV-2 [4]; 50 µM inhibitor concentration): 35.9

Molecule: O=C(N[C@@H](Cc1ccc(O)cc1)C(=O)NC1CCC1=O)OCc1ccccc1 (stereo partly drawn) [Compound 7, Benzyl ((2S)-3-(4-hydroxyphenyl)-1-oxo-1-((2-oxocyclobutyl)amino)propan-2-yl) carbamate]
- Cell Survival following SARS-CoV-2 Challenge (SARS-CoV-2 [4]; 5 µM inhibitor concentration): -2
- Cell Survival following SARS-CoV-2 Challenge (SARS-CoV-2 [4]; 50 µM inhibitor concentration): 28.1

Molecule: O=C(N[C@@H](Cc1ccccc1)C(=O)NC1CCC1=O)OCc1ccccc1 (stereo partly drawn) [Compound 9, Benzyl ((2S)-1-oxo-1-((2-oxocyclobutyl)amino)-3-phenylpropan-2-yl) carbamate]
- IC50 [3, 7]: 8.53 ± 5.15 µM
- Cell Survival following SARS-CoV-2 Challenge (SARS-CoV-2 [4]; 5 µM inhibitor concentration): 41.6
- Cell Survival following SARS-CoV-2 Challenge (SARS-CoV-2 [4]; 50 µM inhibitor concentration): 57.5

Molecule: Cc1ccc(S(=O)(=O)N[C@@H](Cc2ccccc2)C(=O)NCC(C)(C)O)cc1 [Compound 10, (S)-N-(2-hydroxy-2-methylpropyl)-2-((4-methylphenyl)sulfonamido)-3-phenylpropanamide]
- IC50 [3, 7]: 6.95 ± 1.95 µM
- IC50 [3, 6]: 6.68 µM
- toxicity / growth inhibition of Vero cell line (Vero cell line): some inhibitory effect on Vero cell line growth
- Cell Survival following SARS-CoV-2 Challenge (SARS-CoV-2 [4]; 5 µM inhibitor concentration): 36.7
- Cell Survival following SARS-CoV-2 Challenge (SARS-CoV-2 [4]; 50 µM inhibitor concentration): 59.2

Molecule: CCN(CC)C(=S)SSC(=S)N(CC)CC [Disulfiram]
- IC50 (Helicase (NSP13); Enzyme and in vitro assay, ref Ref10): 0.41 µM
- IC50 (SARS-CoV-2 [2]; in vitro assay, ref Ref10, read-out: Antiviral activity IC50): 3.18 µM

Molecule: O=C(N/N=C/c1cc(O)c(O)cc1O)c1cc2ccccc2cc1O [Dyngo-4a]
- IC50 (Helicase (NSP13); Enzyme assay, ref Ref5): 0.63 µM

Molecule: C=C[C@@H]1C[C@]1(NC(=O)[C@@H]1C[C@@H]2CN1C(=O)[C@H](C(C)(C)C)NC(=O)O[C@@H]1C[C@H]1CCCCCc1nc3ccc(OC)cc3nc1O2)C(=O)NS(=O)(=O)C1CC1 [Grazoprevir]
- IC50 (SARS-CoV-2 [2]; in vitro assay, ref Ref6, read-out: Antiviral activity IC50): 1.41 µM

Molecule: Oc1cc(O)c2c(c1)O[C@H](c1cc(O)c(O)c(O)c1)[C@H](O)[C@H]2c1c(O)cc(O)c2c1O[C@H](c1cc(O)c(O)c(O)c1)[C@H](O)[C@H]2c1c(O)cc(O)c2c1O[C@H](c1cc(O)c(O)c(O)c1)[C@H](O)C2 [Katacine]
- IC50 (Helicase (NSP13); Enzyme assay, ref Ref5): 5.98 µM

Molecule: CC(C)[C@H](NC(=O)CCCCCN1C(=O)C=CC1=O)C(=O)N[C@@H](CCCNC(N)=O)C(=O)Nc1ccc(COC(=O)Oc2ccc([N+](=O)[O-])cc2)cc1 [MC-Val-Cit-PABC-PNP]
- IC50 (Helicase (NSP13); Enzyme assay, ref Ref5): 2.45 µM

Molecule: CNC(=C[N+](=O)[O-])NCCSCc1ccc(CN(C)C)o1.O=C([O-])CC(O)(CC(=O)[O-])C(=O)[O-].[Bi+3] [Ranitidine bismuth citrate]
- IC50 (Helicase (NSP13); In vitro & in vivo, ref Ref11, read-out: Enzyme Assay IC50): 0.69 µM
- viral load redn in Animal lungs & nasal turbinate (SARS-CoV-2 [5]): 1 to 1.5 log
- CC50 ([1]; ref Ref11): 3250 µM

Molecule: CC(C)c1cc2c(c(O)c1O)[C@@]13CCCC(C)(C)[C@@H]1[C@H](OC3=O)[C@H]2O [Rosmanol]
- IC50 (Helicase (NSP13); Enzyme assay, ref Ref5): 8.93 µM

Molecule: C=CCn1c(CSc2ccccc2[N+](=O)[O-])n[nH]c1=S [SSYA10-001]
- CC50 ([1]; In vitro, ref Ref4): 80.5 µM

Molecule: O=C(O)CSc1cc(NS(=O)(=O)c2ccc(Br)cc2)c2ccccc2c1O [UMI-77]
- IC50 (Helicase (NSP13); Enzyme assay, ref Ref5): 4.38 µM

Molecule: COc1cc(C(=O)NS(=O)(=O)c2ccccc2C)ccc1Cc1cn(C)c2ccc(NC(=O)OC3CCCC3)cc12 [Zafirlukast]
- IC50 (Helicase (NSP13); Enzyme assay, ref Ref7): 16.3 µM

Molecule: O=C([O-])c1cc(=O)[nH]c(=O)[nH]1.O=C([O-])c1cc(=O)[nH]c(=O)[nH]1.[Zn+2] [Zinc Orotate]
- IC50 (Helicase (NSP13); Enzyme assay, ref Ref5): 4.12 µM

Molecule: COc1ccc2cc1Oc1ccc(cc1)C[C@H]1c3c(cc4c(c3Oc3cc5c(cc3OC)CCN(C)[C@@H]5C2)OCO4)CCN1C [cepharanthine]
- IC50 (SARS-CoV-2 [2]; read-out: IC50, anti-SARS-CoV-2 activity): 400 µM

Molecule: CC(C)=CCc1c(O)cc(O)c2c(=O)cc(-c3ccc(O)cc3)oc12 [licoflavone C]
- IC50 (Helicase (NSP13); Enzyme assay, ref Ref8): 1.34 µM

Molecule: (2R)-2-((4-Methoxyphenyl) sulfonamido)-3-methyl-N-(2-oxocyclobutyl) butanamide [Compound 8]
- IC50 [3, 8]: 13.7 µM
- Cell Survival following SARS-CoV-2 Challenge (SARS-CoV-2 [4]; 5 µM inhibitor concentration): 32.0
- Cell Survival following SARS-CoV-2 Challenge (SARS-CoV-2 [4]; 50 µM inhibitor concentration): 49.1

Molecule: FPA124
- IC50 (Helicase (NSP13); Enzyme assay, ref Ref9): 8.5 µM
- IC50 (SARS-CoV-2 [2]; ref Ref9, read-out: Antiviral activity IC50): 14 µM

Molecule: Tannic acid
- IC50 (Helicase (NSP13); Enzyme assay, ref Ref5): 1.25 µM
